In series [1] the target is T1, human amylin receptors (Homo sapiens, UniProt O60896+P30988).
T1 construct: host or cells: CHO-K1/Ga15/AMY3 cells, further stably transfected with a CRE-luciferase plasmid
T1 sequence (P30988 25-474): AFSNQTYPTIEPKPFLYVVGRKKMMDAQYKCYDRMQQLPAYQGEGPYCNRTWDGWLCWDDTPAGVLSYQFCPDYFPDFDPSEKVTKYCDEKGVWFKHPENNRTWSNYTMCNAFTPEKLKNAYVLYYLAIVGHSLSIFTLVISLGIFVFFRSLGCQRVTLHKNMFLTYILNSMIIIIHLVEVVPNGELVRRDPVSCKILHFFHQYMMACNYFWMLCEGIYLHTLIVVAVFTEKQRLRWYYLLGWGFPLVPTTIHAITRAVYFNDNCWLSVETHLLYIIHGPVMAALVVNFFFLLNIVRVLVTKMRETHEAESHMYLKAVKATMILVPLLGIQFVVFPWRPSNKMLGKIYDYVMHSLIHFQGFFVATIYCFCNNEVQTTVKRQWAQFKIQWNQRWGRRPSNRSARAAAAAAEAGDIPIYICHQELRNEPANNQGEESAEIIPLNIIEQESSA
T1 sequence (O60896 24-148 partner): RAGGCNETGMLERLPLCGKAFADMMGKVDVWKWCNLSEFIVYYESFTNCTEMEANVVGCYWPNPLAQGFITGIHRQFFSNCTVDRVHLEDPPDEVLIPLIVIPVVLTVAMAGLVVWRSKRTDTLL
As to the kind of experiment: Luciferase assay in stably transfected amylin receptor/CRE-luc CHO cell line. It is filed as cell-based.

The nature of series [2]: Heat accelerated stability assay, 40° C., detection on 7 d and 28 d. The series is classed as physicochemical. The procedure, abridged: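 Reversed-phase HPLC (214 nm, 0.05% TFA water/acetonitrile gradient, column 25° C.) measured polypeptide concentration and purity in centrifuged supernatants on days 7 and 28. Samples: 1 mg/mL derivative with 1.42 mg/mL sodium dihydrogen phosphate, pH about 7.4, filtered and held at 40° C.; physical changes also recorded.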

Series [3] is described as follows: Animal study in SD rats (Example 4), weight change and food consumption. The series is classed as in vivo. Particulars: 30 nmol/kg subcutaneous (FIGS. 2A, 2B). On the procedure: SPF male SD rats (7-8 weeks, 200-250 g) were employed in this study after health inspection and quarantine. The experimental animals were exposed to a room temperature of 20° C.-23° C. and a relative humidity of 40%-50%, and were provided with Co60 mouse reproduction feed 1035 and purified water supplied with water feeding bottles for free intake throughout the health inspection and quarantine and the study. Based on their mean body weight, 5 rats were assigned to each testing group for the derivatives. The rats were subcutaneously administered the derivatives at a dose of 30 nmol/kg or a vehicle (PBS pH7.4), and the dosing timepoint was recorded for each group. After dosing, the rats were put back into cages where they lived and could have access to food and water. Food consumption and weight change of the rats were recorded online or manually every 24 hours.

The conditions of series [4]: in vivo, background statement; cited from earlier work.
The conditions of series [5]: cited from earlier work.

Starred links: 1 amine or outer side, 2 acyl side, 3 side chain; linkers in the order of their positions; H or OH if unused. Residues, ends and D or L forms follow the SMILES beside them. No end group written: not given here. *: point of attachment. C20 diacid = O=C(O)CCCCCCCCCCCCCCCCCCC(=O)*; γGlu = O=C(O)[C@H](CCC(=O)[*:2])N[*:1]

With `CC[C@H](C)[C@H](NC(=O)[C@H](CC(=O)O)NC(=O)[C@H](CCCNC(=N)N)NC(=O)[C@H](CC(=O)O)NC(=O)[C@H](CCCNC(=N)N)NC(=O)[C@H](CC(=O)O)NC(=O)[C@@H](NC(=O)[C@H](Cc1ccccc1)NC(=O)[C@H](Cc1c[nH]cn1)NC(=O)[C@H](CCCNC(=N)N)NC(=O)[C@H](CC(C)C)NC(=O)[C@H](Cc1ccccc1)NC(=O)[C@H](CC(=O)O)NC(=O)[C@H](C)NC(=O)[C@H](CC(C)C)NC(=O)[C@H](CCCNC(=N)N)NC(=O)[C@H](CCC(N)=O)NC(=O)[C@@H](NC(=O)[C@H](C)NC(=O)[C@H](C)NC(=O)[C@@H](NC(=O)[C@H](CO)NC(=O)[C@H](CC(C)C)NC(=O)[C@H](CCC(N)=O)NC(=O)[C@H](CO)NC(=O)[C@H](C)NC(=O)CC[C@H](NC(=O)CCCCCCCCCCCCCCCCCCC(=O)O)C(=O)O)[C@@H](C)O)[C@@H](C)O)[C@@H](C)O)C(=O)N[C@@H](CC(C)C)C(=O)N1CCC[C@H]1C(=O)N1CCC[C@H]1C(=O)N[C@H](C(=O)N[C@@H](CC(N)=O)C(=O)N[C@H](C(=O)NCC(=O)N[C@@H](CO)C(=O)N[C@@H](CC(N)=O)C(=O)N[C@H](C(=O)N1CCC[C@H]1C(N)=O)[C@@H](C)O)C(C)C)[C@@H](C)O` [M6] ({C20 diacid-γGlu}-ASQLSTAATQRLADFLRHFTDRDRDILPPTNVGSNTP-NH2), the Relative activity in series [1] (EC50 ratio of Cagrilintide to the compound, Cagrilintide 100%) was 62%. Moreover, in series [1] (amylin receptor/CRE-luc CHO cells, 24 hours incubation, luminescence), a half-maximal effect (EC50) was put at 0.042 nM. Further, the “Purity from the reversed phase chromatography-214 nm, 0 d” value in series [2] (1 mg/mL, pH about 7.4, 40° C., 0 d) stood at 91.52. Also, the “Purity from the reversed phase chromatography-214 nm, 7 d” value in series [2] (1 mg/mL, pH about 7.4, 40° C., 7 d) was 90.98. The “Purity from the reversed phase chromatography-214 nm, 28 d” value in series [2] (1 mg/mL, pH about 7.4, 40° C., 28 d) came out at 92.33. Moreover, the “Change of spectra of reversed phase chromatography after heat acceleration” value in series [2] (after 7 days or even 1 month, 40° C. (FIG. 1)) is given as “almost no change”. In addition, the “Change (7 d − 0 d)” value in series [2] (purity on 7 d − purity on 0 d, 40° C., pH about 7.4) is on record as −0.54. Besides, the “Change (28 d − 0 d)” value in series [2] (purity on 28 d − purity on 0 d, 40° C., pH about 7.4) is 0.81. The “Activity on weight loss and food intake compared with Cagrilintide” value in series [3] is given as “the most active one with an activity notably higher than Cagrilintide”.
“Amylin (KCNTATCATQRLANFLVHSSNNFGAILSSTNVGSNTY; not fully specified (C-terminus, bridges); cysteine pairing not given here; UniProt P10997 34-70, looked up) [polypeptide hormone consisting of 37 amino acids, member of the calcitonin protein family]”: in series [4], the half-life result is recorded as “short half-life in vivo”. The fibrillation entry in series [5] (background statement) is recorded as “strong tendency towards fibrillation”. In addition, the chemical stability entry in series [5] (pH 7, background statement) was “chemical instability at pH 7”.

The values above are taken from patent US20260265329A1, “POLYPEPTIDE AND DERIVATIVE THEREOF, COMPOSITION, AND USE THEREOF” (HANGZHOU SCIWIND BIOSCIENCES CO., LTD., priority 2023, published 2026).
